Laboratory results reported in ChEMBL document CHEMBL1141546, “Diamine derivatives containing imidazolidinylidene propanedinitrile as a new class of histamine H3 receptor antagonists. Part I” (Bioorg Med Chem Lett, 2008).

Tests used:
[1] = target: Histamine H1 receptor (Homo sapiens) (UniProt P35367); experiment: Displacement of [3H]pyrilamine from human H1 receptor expressed in monkey COS7 cells at 1 uM; type: cell-based; conditions: COS-7
[2] = target: Histamine H4 receptor (Homo sapiens) (UniProt Q9H3N8); experiment: Displacement of [3H]histamine from human H4 receptor expressed in monkey COS7 cells at 10 uM; type: cell-based; conditions: COS-7
Histamine H3 receptor [3] = target: T1, Histamine H3 receptor (Rattus norvegicus, UniProt Q9QYN8); experiment: Displacement of [3H]N-alpha-methylhistamine from histamine H3 receptor in rat striatal membrane; type: cell membranes, Striatum
[4] = target: Histamine H2 receptor (Homo sapiens) (UniProt P25021); experiment: Displacement of [3H]tiotidine from human H2 receptor expressed in monkey COS7 cells at 10 uM; type: cell-based; conditions: COS-7
[5] = target: Histamine H4 receptor (Homo sapiens) (UniProt Q9H3N8); experiment: Displacement of [3H]histamine from human H4 receptor expressed in monkey COS7 cells at 1 uM; type: cell-based; conditions: COS-7
Histamine H3 receptor [6] = target: T2, Histamine H3 receptor (Homo sapiens, UniProt Q9Y5N1); experiment: Displacement of [3H]N-alpha-methylhistamine from human cloned histamine H3 receptor expressed in monkey COS7 cells; type: cell-based, COS-7
[7] = target: Histamine H1 receptor (Homo sapiens) (UniProt P35367); experiment: Displacement of [3H]pyrilamine from human H1 receptor expressed in monkey COS7 cells at 10 uM; type: cell-based; conditions: COS-7
[8] = target: Histamine H2 receptor (Homo sapiens) (UniProt P25021); experiment: Displacement of [3H]tiotidine from human H2 receptor expressed in monkey COS7 cells at 1 uM; type: cell-based; conditions: COS-7
[9] = target: Histamine H3 receptor (Rattus norvegicus) (UniProt Q9QYN8); experiment: Displacement of [3H]N-alpha-methylhistamine from histamine H3 receptor in rat striatal membrane at 0.1 uM; type: cell membranes; conditions: Striatum
Histamine H3 receptor [10] = target: T2, Histamine H3 receptor; experiment: Displacement of [3H]N-alpha-methylhistamine from human cloned histamine H3 receptor expressed in monkey COS7 cells at 0.1 uM; type: cell-based; conditions: COS-7
[11] = target: Histamine H3 receptor (Rattus norvegicus) (UniProt Q9QYN8); experiment: Displacement of [3H]N-alpha-methylhistamine from histamine H3 receptor in rat striatal membrane at 1 uM; type: cell membranes; conditions: Striatum
Histamine H3 receptor [12] = target: T2, Histamine H3 receptor; experiment: Displacement of [3H]N-alpha-methylhistamine from human cloned histamine H3 receptor expressed in monkey COS7 cells at 1 uM; type: cell-based; conditions: COS-7
Histamine H3 receptor [13] = target: T1, Histamine H3 receptor; experiment: Antagonist activity at histamine H3 receptor in rat forebrain assessed as inhibition of [3H]histamine release from synaptosomes; type: functional, subcellular, Brain

T2 sequence (Q9Y5N1 whole entry): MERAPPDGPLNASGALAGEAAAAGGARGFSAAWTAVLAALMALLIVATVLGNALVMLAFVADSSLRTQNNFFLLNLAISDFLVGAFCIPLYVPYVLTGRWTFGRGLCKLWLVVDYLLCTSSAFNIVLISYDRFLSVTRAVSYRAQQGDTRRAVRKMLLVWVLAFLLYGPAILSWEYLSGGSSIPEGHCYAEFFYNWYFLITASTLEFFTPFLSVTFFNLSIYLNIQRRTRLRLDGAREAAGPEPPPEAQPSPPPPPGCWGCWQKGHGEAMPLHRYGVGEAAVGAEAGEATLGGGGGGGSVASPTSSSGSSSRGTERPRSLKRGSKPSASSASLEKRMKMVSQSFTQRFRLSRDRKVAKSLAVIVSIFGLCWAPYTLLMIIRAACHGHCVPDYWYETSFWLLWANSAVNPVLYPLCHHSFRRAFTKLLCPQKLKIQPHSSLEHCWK
T1 sequence (Q9QYN8 whole entry): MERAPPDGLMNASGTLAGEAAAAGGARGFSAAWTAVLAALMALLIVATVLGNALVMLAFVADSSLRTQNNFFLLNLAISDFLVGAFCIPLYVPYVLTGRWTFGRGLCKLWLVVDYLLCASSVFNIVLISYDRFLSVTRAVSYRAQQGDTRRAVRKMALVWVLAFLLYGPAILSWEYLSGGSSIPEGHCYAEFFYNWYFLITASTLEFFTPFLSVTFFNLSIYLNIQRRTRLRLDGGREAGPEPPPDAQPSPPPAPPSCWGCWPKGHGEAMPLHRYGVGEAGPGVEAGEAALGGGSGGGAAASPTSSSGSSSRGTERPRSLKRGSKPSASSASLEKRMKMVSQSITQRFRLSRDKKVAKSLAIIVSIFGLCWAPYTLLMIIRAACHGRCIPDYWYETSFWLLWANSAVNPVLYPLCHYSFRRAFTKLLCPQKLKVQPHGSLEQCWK
Chain of Histamine H3 receptor (Rattus norvegicus) (Q9QYN8 whole entry): as above
Chain of Histamine H2 receptor (Homo sapiens) (P25021 whole entry): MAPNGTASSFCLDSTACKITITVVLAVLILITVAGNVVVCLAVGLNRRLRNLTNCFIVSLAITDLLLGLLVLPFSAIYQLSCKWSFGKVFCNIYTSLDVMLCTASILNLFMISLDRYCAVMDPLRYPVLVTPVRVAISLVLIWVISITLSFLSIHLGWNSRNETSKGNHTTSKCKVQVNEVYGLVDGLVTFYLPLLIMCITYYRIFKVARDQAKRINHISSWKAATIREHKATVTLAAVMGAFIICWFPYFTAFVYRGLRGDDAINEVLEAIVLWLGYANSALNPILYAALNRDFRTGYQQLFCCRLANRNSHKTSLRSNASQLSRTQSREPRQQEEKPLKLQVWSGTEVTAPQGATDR
Chain of Histamine H1 receptor (Homo sapiens) (P35367 whole entry): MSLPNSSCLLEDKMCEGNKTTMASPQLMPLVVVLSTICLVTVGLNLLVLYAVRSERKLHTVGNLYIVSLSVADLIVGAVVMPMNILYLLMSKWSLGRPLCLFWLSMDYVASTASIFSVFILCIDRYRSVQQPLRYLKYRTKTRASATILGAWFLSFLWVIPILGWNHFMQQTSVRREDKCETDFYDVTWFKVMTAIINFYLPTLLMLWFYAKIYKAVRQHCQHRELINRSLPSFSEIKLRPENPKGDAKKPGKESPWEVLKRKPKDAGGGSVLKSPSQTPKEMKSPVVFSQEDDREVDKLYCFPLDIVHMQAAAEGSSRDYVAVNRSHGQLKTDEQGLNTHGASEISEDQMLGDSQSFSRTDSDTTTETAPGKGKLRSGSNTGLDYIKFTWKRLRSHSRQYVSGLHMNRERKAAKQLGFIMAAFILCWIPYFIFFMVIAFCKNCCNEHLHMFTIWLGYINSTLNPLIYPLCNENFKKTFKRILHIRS

| Compound | inhibition [1] | inhibition [2] | Ki (Histamine H3 receptor [3]) | inhibition [4] | inhibition [5] | Ki (Histamine H3 receptor [6]) | inhibition [7] | inhibition [8] | inhibition [9] | inhibition (Histamine H3 receptor [10]) | inhibition [11] | inhibition (Histamine H3 receptor [12]) | IC50 (Histamine H3 receptor [13]) |
| --- | --- | --- | --- | --- | --- | --- | --- | --- | --- | --- | --- | --- | --- |
| C[C@@H]1CCCN1CCN1CCN(CCN2CCC[C@@H]2C)C1=C(C#N)C#N | -3% | -3% | 0.77 nM | -9% | 6% | 0.47 nM | 7% |  |  |  |  |  |  |
| N#CC(C#N)=C1N(CCN2CCCCC2)CCN1CCN1CCC(O)C1 (racemic) |  |  |  |  |  |  |  |  | 57% | 49% | 86% | 70% |  |
| N#CC(C#N)=C1N(CCCCN2CCCCC2)CCN1CCCCN1CCCCC1 |  |  |  |  |  |  |  |  | 51% | 43% | 85% | 68% |  |
| N#CC(C#N)=C1N(CCCCN2CCCCC2)CCN1CCN1CCCCC1 |  |  | 8.6 nM |  |  | 16 nM |  |  |  |  |  |  |  |
| C[C@H]1CCCN1CCN1CCN(CCN2CCC[C@@H]2C)C1=C(C#N)C#N | 8% | 0% | 0.48 nM | -2% | 9% | 0.34 nM | 14% | 2% |  |  |  |  | 1.9 nM |
| N#CC(C#N)=C1N(CCCCN2CCCCC2)CCN1CCCN1CCCCC1 |  |  |  |  |  |  |  |  | 65% | 48% | 88% | 74% |  |
| c1cc(OCCCN2CCCCC2)ccc1CN1CCCCC1 [JNJ-5207852] |  |  | 1.26 nM |  |  |  |  |  |  |  |  |  |  |
| N#CC(C#N)=C1N(CCCN2CCCCC2)CCN1CCCN1CCCCC1 | 3% | -1% | 2.6 nM | -4% | 11% | 2.4 nM | 21% | -5% |  |  |  |  | 28 nM |
| N#CC(C#N)=C1N(CCCN2CCCCC2)CCN1Cc1cccc2ccccc12 |  |  | 690 nM |  |  | 36 nM |  |  |  |  |  |  |  |
| CC1CCCN1CCN1CCN(CCN2CCCCC2)C1=C(C#N)C#N (racemic) | 5% | 6% | 0.69 nM | -4% | 2% | 0.38 nM | 9% | -8% |  |  |  |  |  |
| N#CC(C#N)=C1N(CCN2CCCCC2)CCN1CCN1CCCCC1 |  |  | 55 nM |  |  | 24 nM |  |  |  |  |  |  |  |

Now from value to molecule:

| inhibition [1] | inhibition [2] | Ki (Histamine H3 receptor [3]) | inhibition [4] | inhibition [5] | Ki (Histamine H3 receptor [6]) | inhibition [7] | inhibition [8] | inhibition [9] | inhibition (Histamine H3 receptor [10]) | inhibition [11] | inhibition (Histamine H3 receptor [12]) | IC50 (Histamine H3 receptor [13]) | Compound |
| --- | --- | --- | --- | --- | --- | --- | --- | --- | --- | --- | --- | --- | --- |
| 0% | 8% | 1.1 nM | -1% | 9% | 1.3 nM | -4% | -7% |  |  |  |  |  | C[C@@H]1CCCN1CCN1CCN(CCN2CCC[C@H]2C)C1=C(C#N)C#N |
|  |  | 6.3 nM |  |  | 6.6 nM |  |  |  |  |  |  |  | N#CC(C#N)=C1N(CCCN2CCCCC2)CCN1CCN1CCCCC1 |
|  |  |  |  |  |  |  |  | 43% | 37% | 82% | 74% |  | CN1CCN(CCN2CCN(CCN3CCCCC3)C2=C(C#N)C#N)CC1 |
|  |  |  |  |  |  |  |  | 44% | 37% | 82% | 69% |  | N#CC(C#N)=C1N(CCN2CCCCC2)CCN1CCN1CCOCC1 |
|  |  | 75 nM |  |  | 83 nM |  |  |  |  |  |  |  | CCN(CCCN(C)C)CCN1CCN(Cc2cccc3ccccc23)C1=C(C#N)C#N |
| 10% | -7% | 0.68 nM | 0% | -8% | 0.33 nM | 21% | 1% |  |  |  |  | 4.9 nM | CC1CCCN1CCN1CCN(CCN2CCCC2C)C1=C(C#N)C#N (racemic) |
